Assay results reported in patent US11090304B2 (Amgen Inc., priority 2018, dated 2021).

Target: GDP-bound KRAS protein (aa 1-169), containing both G12C and C118A amino acid substitutions (Homo sapiens, UniProt P01116, C118A/G12C)
Test: Coupled nucleotide exchange assay (SOS-mediated, AlphaScreen)
Type: biochemical
Details: 5 min compound pre-incubation

Sequence of GDP-bound KRAS protein (aa 1-169), containing both G12C and C118A amino acid substitutions (P01116 1-169 isoform P01116-2 G12C/C118A): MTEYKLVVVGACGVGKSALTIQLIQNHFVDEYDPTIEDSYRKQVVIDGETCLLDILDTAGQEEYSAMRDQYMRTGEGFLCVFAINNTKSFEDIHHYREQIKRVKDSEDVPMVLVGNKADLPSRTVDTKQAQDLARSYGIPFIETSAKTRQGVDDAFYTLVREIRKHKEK

Coupled exchange IC50 (5 min)	SMILES
5.51 | nda μM	C=CC(=O)N1CCN(c2nc(=O)n(-c3c(CC)cccc3CC)c3nc(N4CCC(F)(F)C4)c(Cl)cc23)[C@@H](C)C1 [Example 66-14, 6-chloro-1-(2,6-diethylphenyl)-7-(3,3-difluoro-1-pyrrolidinyl)-4-((2S)-2-methyl-4-(2-propenoyl)-1-piperazinyl)pyrido[2,3-d]pyrimidin-2(1H)-one]
89.7 | nda μM	C=CC(=O)N1CCN(c2nc(=O)n(-c3c(CC)cccc3CC)c3nc(N4CCOC(CC)C4)c(Cl)cc23)[C@@H](C)C1 (stereo partly drawn) [Example 66-15, 6-chloro-1-(2,6-diethylphenyl)-7-(2-ethyl-4-morpholinyl)-4-((2S)-2-methyl-4-(2-propenoyl)-1-piperazinyl)pyrido[2,3-d]pyrimidin-2(1H)-one]
75.5 | nda μM	C=CC(=O)N1CCN(c2nc(=O)n(-c3c(CC)cccc3CC)c3nc(N4CCOC5(CCCC5)C4)c(Cl)cc23)[C@@H](C)C1 [Example 66-17, 6-chloro-1-(2,6-diethylphenyl)-4-((2S)-2-methyl-4-(2-propenoyl)-1-piperazinyl)-7-(6-oxa-9-azaspiro[4.5]decan-9-yl)pyrido[2,3-d]pyrimidin-2(1H)-one]
76.7 | nda μM	C=CC(=O)N1CCN(c2nc(=O)n(-c3c(CC)cccc3CC)c3nc(N4CCOC(C(C)C)C4)c(Cl)cc23)[C@@H](C)C1 (stereo partly drawn) [Example 66-18, 6-chloro-1-(2,6-diethylphenyl)-4-((2S)-2-methyl-4-(2-propenoyl)-1-piperazinyl)-7-(2-(2-propanyl)-4-morpholinyl)pyrido[2,3-d]pyrimidin-2(1H)-one]
28.2 | nda μM	C=CC(=O)N1CCN(c2nc(=O)n(-c3c(CC)cccc3CC)c3nc(N4CCC(CC)(CC)C4)c(Cl)cc23)[C@@H](C)C1 [Example 66-20, 6-chloro-1-(2,6-diethylphenyl)-7-(3,3-diethyl-1-pyrrolidinyl)-4-((2S)-2-methyl-4-(2-propenoyl)-1-piperazinyl)pyrido[2,3-d]pyrimidin-2(1H)-one]
33 | nda μM	C=CC(=O)N1CCN(c2nc(=O)n(-c3c(CC)cccc3CC)c3nc(N4CCC(C(C)(C)C)C4)c(Cl)cc23)[C@@H](C)C1 (stereo partly shown) [Example 66-21]
40.7 | nda μM	C=CC(=O)N1CCN(c2nc(=O)n(-c3c(CC)cccc3CC)c3nc(N4CC[C@H](OC)C4)c(Cl)cc23)[C@@H](C)C1 [Example 66-22, 6-chloro-1-(2,6-diethylphenyl)-7-((3S)-3-methoxy-1-pyrrolidinyl)-4-((2S)-2-methyl-4-(2-propenoyl)-1-piperazinyl)pyrido[2,3-d]pyrimidin-2(1H)-one]
160 | nda μM	C=CC(=O)N1CCN(c2nc(=O)n(-c3c(CC)cccc3CC)c3nc(N4CCC[C@@H]4C#N)c(Cl)cc23)[C@@H](C)C1 [Example 66-23, (2R)-1-(6-chloro-1-(2,6-diethylphenyl)-4-((2S)-2-methyl-4-(2-propenoyl)-1-piperazinyl)-2-oxo-1,2-dihydropyrido[2,3-d]pyrimidin-7-yl)-2-pyrrolidinecarbonitrile]
95 | nda μM	C=CC(=O)N1CCN(c2nc(=O)n(-c3c(CC)cccc3CC)c3nc(N4CCOC(C5CC5)C4)c(Cl)cc23)[C@@H](C)C1 (stereo partly drawn) [Example 66-25, 6-chloro-7-(2-cyclopropyl-4-morpholinyl)-1-(2,6-diethylphenyl)-4-((2S)-2-methyl-4-(2-propenoyl)-1-piperazinyl)pyrido[2,3-d]pyrimidin-2(1H)-one]
16.6 | nda μM	C=CC(=O)N1CCN(c2nc(=O)n(-c3c(CC)cccc3CC)c3nc(N4CCC[C@H](C)C4)c(Cl)cc23)[C@@H](C)C1 [Example 66-28, 6-chloro-1-(2,6-diethylphenyl)-7-((3S)-3-methyl-1-piperindinyl)-4-((2S)-2-methyl-4-(2-propenoyl)-1-piperazinyl)pyrido[2,3-d]pyrimidin-2(1H)-one]
25.3 | nda μM	C=CC(=O)N1CCN(c2nc(=O)n(-c3c(CC)cccc3CC)c3nc(N4CCC(C)(C)CC4)c(Cl)cc23)[C@@H](C)C1 [Example 66-29, 6-chloro-1-(2,6-diethylphenyl)-7-(4,4-dimethyl-1-piperindinyl)-4-((2S)-2-methyl-4-(2-propenoyl)-1-piperazinyl)pyrido[2,3-d]pyrimidin-2(1H)-one]
16.05 | nda μM	C=CC(=O)N1CCN(c2nc(=O)n(-c3c(CC)cccc3CC)c3nc(N4CCOC[C@@H]4C)c(Cl)cc23)[C@@H](C)C1 [Example 66-30, 6-chloro-1-(2,6-diethylphenyl)-7-((3S)-3-methyl-4-morpholinyl)-4-((2S)-2-methyl-4-(2-propenoyl)-1-piperazinyl)pyrido[2,3-d]pyrimidin-2(1H)-one]
84.25 | nda μM	C=CC(=O)N1CCN(c2nc(=O)n(-c3c(CC)cccc3CC)c3nc(N4C[C@@H]5C[C@H]4CO5)c(Cl)cc23)[C@@H](C)C1 [Example 66-31, 6-chloro-1-(2,6-diethylphenyl)-4-((2S)-2-methyl-4-(2-propenoyl)-1-piperazinyl)-7-((1S,4S)-2-oxa-5-azabicyclo[2.2.1]heptan-5-yl)pyrido[2,3-d]pyrimidin-2(1H)-one]
15.9 | nda μM	C=CC(=O)N1CCN(c2nc(=O)n(-c3c(CC)cccc3CC)c3nc(N4CCOC[C@H]4C)c(Cl)cc23)[C@@H](C)C1 [Example 66-33, 6-chloro-1-(2,6-diethylphenyl)-7-((3R)-3-methyl-4-morpholinyl)-4-((2S)-2-methyl-4-(2-propenoyl)-1-piperazinyl)pyrido[2,3-d]pyrimidin-2(1H)-one]
3.51 | nda μM	C=CC(=O)N1CCN(c2nc(=O)n(-c3ccccc3C(C)C)c3nc(-c4ccncc4F)c(Cl)cc23)[C@@H](C)C1 [Example 67-1, 6-Chloro-7-(3-fluoro-4-pyridinyl)-4-((2S)-2-methyl-4-(2-propenoyl)-1-piperazinyl)-1-(2-(2-propanyl)phenyl)pyrido[2,3-d]pyrimidin-2(1H)-one]
6.45 | nda μM	C=CC(=O)N1CCN(c2nc(=O)n(-c3ccccc3C(C)C)c3nc(-c4cc(C(F)(F)F)nn4C)c(Cl)cc23)[C@@H](C)C1 [Example 67-2, 6-chloro-4-((2S)-2-methyl-4-(2-propenoyl)-1-piperazinyl)-7-(1-methyl-3-(trifluoromethyl)-1H-pyrazol-5-yl)-1-(2-(2-propanyl)phenyl)pyrido[2,3-d]pyrimidin-2(1H)-one]
2.87 | nda μM	C=CC(=O)N1CCN(c2nc(=O)n(-c3ccccc3C(C)C)c3nc(-c4c(C)cnn4C)c(Cl)cc23)[C@@H](C)C1 [Example 67-3, 6-chloro-7-(1,4-dimethyl-1H-pyrazol-5-yl)-4-((2S)-2-methyl-4-(2-propenoyl)-1-piperazinyl)-1-(2-(2-propanyl)phenyl)pyrido[2,3-d]pyrimidin-2(1H)-one]
5.64 | nda μM	C=CC(=O)N1CCN(c2nc(=O)n(-c3ccccc3C(C)C)c3nc(N4CCCCC4C)c(Cl)cc23)[C@@H](C)C1 (stereo partly shown) [Example 69-5]
13.7 | nda μM	C=CC(=O)N1CCN(c2nc(=O)n(-c3ccccc3C(C)C)c3nc(N(C)C(C)C)c(Cl)cc23)[C@@H](C)C1 [Example 69-6, 6-chloro-7-(methyl(2-propanyl)amino)-4-((2S)-2-methyl-4-(2-propenoyl)-1-piperazinyl)-1-(2-(2-propanyl)phenyl)pyrido[2,3-d]pyrimidin-2(1H)-one]
